We go through 13 molecules from patent publication US7030242B2, “Selective inhibition of aggrecanase in osteoarthritis treatment” (Pfizer Inc, priority 1999, dated 2006).

Assay [1] deals with Human recombinant collagenase-3 (Homo sapiens, UniProt P45452). Put plainly: Inhibition of human collagenase-3 (recombinant collagenase-3 assay). The assay is classed as biochemical. The protocol:
Inhibition of Human Collagenase-3 (Recombinant Collagenase-3 Assay)
This assay is used in the invention to measure the potency (IC50s) of compounds for collagenase-3.
Human recombinant collagenase-3 is activated with 2 mM APMA (p-aminophenyl mercuric acetate) for about 2.0 hours, at about 37° C. and is diluted to about 240 ng/ml in assay buffer (50 mM Tris, pH 7.5, 200 mM sodium chloride, 5 mM calcium chloride, […], 0.02% BRIJ-35). Twenty-five micro-liters of diluted enzyme is added per well of a 96 well microfluor plate.
The final concentrations in the assay are 30 μM, 3 μM, 0.3 μM, and 0.03 μM.
Fluorescence readings (360 nm excitation; 450 nm emission) are taken at time 0 and about every 5 minutes for about 1 hour.
Positive controls and negative controls are set up in triplicate as outlined in the collagenase-1 assay. IC50's are determined as per inhibition of human collagenase (collagenase-1).

The target of the next assay is T1, TACE (Homo sapiens, UniProt P78536).
T1 construct: Human mononuclear cells are isolated from anti-coagulated human blood; endogenous in cells; host or cells: human peripheral blood mononuclear cells, LPS stimulated
T1 sequence (P78536 215-824): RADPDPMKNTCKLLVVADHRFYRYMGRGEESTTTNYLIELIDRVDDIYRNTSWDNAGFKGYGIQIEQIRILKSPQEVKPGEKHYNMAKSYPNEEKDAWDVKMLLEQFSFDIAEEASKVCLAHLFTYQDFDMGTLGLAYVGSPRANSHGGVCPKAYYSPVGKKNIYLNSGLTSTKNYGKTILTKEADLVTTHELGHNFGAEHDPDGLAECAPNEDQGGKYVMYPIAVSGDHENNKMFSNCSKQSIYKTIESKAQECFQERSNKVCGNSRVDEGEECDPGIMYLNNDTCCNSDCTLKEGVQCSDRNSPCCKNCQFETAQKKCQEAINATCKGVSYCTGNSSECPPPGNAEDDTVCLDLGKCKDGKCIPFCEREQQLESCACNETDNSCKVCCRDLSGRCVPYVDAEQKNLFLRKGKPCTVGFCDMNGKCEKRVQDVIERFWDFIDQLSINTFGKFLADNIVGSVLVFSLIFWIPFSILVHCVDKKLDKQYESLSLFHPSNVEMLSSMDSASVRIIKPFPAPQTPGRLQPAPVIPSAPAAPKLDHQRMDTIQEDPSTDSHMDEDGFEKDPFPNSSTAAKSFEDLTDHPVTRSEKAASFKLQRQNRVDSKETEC
Put plainly: Inhibition of soluble TNF-α production (TACE whole blood assay). The assay is classed as cell-based. Conditions: Table 2, read-out: TACE (IC50 class). The protocol: Inhibition of Soluble TNF-α Production (TACE Whole Blood Assay)
This assay is used in the invention to measure the potency (IC50s) of compounds for TACE.
Human mononuclear cells are isolated from anti-coagulated human blood using a one-step Ficoll-hypaque separation technique. (2) The mononuclear cells are washed three times in Hanks balanced salt solution (HBSS) with divalent cations and re-suspended to a density of 2×10^6/ml in HBSS containing 1% BSA.
180 μL of the cell suspension was aliquoted into flat bottom 96 well plates (Costar). Additions of compounds and LPS (100 ng/ml final concentration) gives a final volume of 200 μL. All conditions are performed in triplicate. After about a four hour incubation at about 37° C. in an humidified CO2 incubator, plates are removed and centrifuged (about 10 minutes at approximately 250×g) and the supernatants removed and assayed for TNF-α using the R&D ELISA Kit.

The target in assay [2] is T2, Human recombinant collagenase-1 (Homo sapiens, UniProt P03956).
T2 sequence (P03956 100-469): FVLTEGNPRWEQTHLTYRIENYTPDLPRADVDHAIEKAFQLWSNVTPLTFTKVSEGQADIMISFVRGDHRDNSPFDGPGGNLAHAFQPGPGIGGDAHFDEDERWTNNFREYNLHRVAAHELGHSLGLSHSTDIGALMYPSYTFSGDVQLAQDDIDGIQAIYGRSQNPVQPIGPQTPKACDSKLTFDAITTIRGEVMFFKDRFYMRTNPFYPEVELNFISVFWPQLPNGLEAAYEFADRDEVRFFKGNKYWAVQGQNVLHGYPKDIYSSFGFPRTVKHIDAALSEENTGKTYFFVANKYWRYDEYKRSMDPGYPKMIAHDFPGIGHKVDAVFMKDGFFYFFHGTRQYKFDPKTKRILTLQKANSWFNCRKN
Put plainly: Inhibition of human collagenase-1 (recombinant collagenase-1 assay). The conditions noted are these: Table 2, read-out: MMP-1 (IC50 class). In kind it is biochemical. The protocol:
Inhibition of Human Collagenase-1 (Recombinant Collagenase-1 Assay)
This assay is used in the invention to measure the potency (IC50s) of compounds for collagenase-1.
Human recombinant collagenase-1 is activated with trypsin. The amount of trypsin is optimized for each lot of collagenase-1, but a typical reaction uses the following ratio: 5 mg trypsin per 100 mg of collagenase.
Stock solutions (10 mM) of inhibitors are made up in dimethylsulfoxide and then diluted using the following scheme: • 10 mM------>120 μM------>12 μM------>1.2 μM------>0.12 μM
Twenty-five microliters of each concentration is then added in triplicate to appropriate wells of a 96 well microfluor plate. The final concentration of inhibitor will be a 1:4 dilution after addition of enzyme and substrate. Positive controls (enzyme, no inhibitor) are set up in wells D7–D12 and negative controls (no enzyme, no inhibitors) are set in wells D1–D6.
Collagenase-1 is diluted to 240 ng/ml and […] is then added to appropriate wells of the microfluor plate. Final concentration of collagenase in the assay is 60 ng/ml.
Substrate (DNP-Pro-Cha-Gly-Cys(Me)-His-Ala-Lys(NMA)-NH2) is made as a 5 mM stock in dimethylsulfoxide and then diluted to 20 μM in assay buffer. The assay is initiated by the addition of […] substrate per well of the microfluor plate to give a final concentration of 10 μM.
Fluorescence readings (360 nm excitation, 460 nm emission) are taken at time 0 and then at about 20 minute intervals. The assay is conducted at a temperature of about 20 to about 25° C., preferably about 23° C. with a typical assay time of about 3 hours.
Fluorescence versus time is then plotted for both the blank and collagenase containing samples (data from triplicate determinations is averaged). A time point that provides a good signal (at least five fold over the blank) and that is on a linear part of the curve (usually around 120 minutes) is chosen to determine IC50 values. The zero time is used as a blank for each compound at each concentration and these values are subtracted from the 120 minute data. Data is plotted as inhibitor concentration versus % control (inhibitor fluorescence divided by fluorescence of collagenase alone ×100).

For the next assay, the system named is aggrecanase. The assay can be described thus: Aggrecanase chondrocyte assay (35S-proteoglycan release, IL-1 stimulated). In kind it is cell-based, porcine. The protocol:
Aggrecanase Chondrocyte Assay
This assay is used in the invention to measure the potency (IC50s) of compounds for aggrecanase.
Primary porcine chondrocytes from articular joint cartilage are isolated by sequential trypsin and collagenase digestion followed by collagenase digestion overnight and are plated at 2×10^5 cells per well into 48 well plates with 5 μCi/ml ^35S (1000 Ci/mmol) sulphur in type I collagen coated plates. Cells are allowed to incorporate label into their proteoglycan matrix (approximately 1 week) at 37° C., under an atmosphere of 5% CO2.
The night before initiating the assay, chondrocyte monolayers are washed two times in DMEM/1% PSF/G and then allowed to incubate in fresh DMEM/1% FBS overnight.
The following morning chondrocytes are washed once in DMEM/1% PSF/G. The final wash is allowed to sit on the plates in the incubator while making dilutions. Media and dilutions can be made as described in the Table I below.
Plates are labeled and only the interior 24 wells of the plate are used. On one of the plates, several columns are designated as IL-1 (no drug) and Control (no IL-1, no drug). These control columns are periodically counted to monitor 35S-proteoglycan release. Control and IL-1 media are added to wells (450 μl) followed by compound (50 μl) so as to initiate the assay. Plates are incubated at 37° C., with a 5% CO2 atmosphere.
At 40–50% release (when CPM from IL-1 media is 4–5 times control media) as assessed by liquid scintillation counting (LSC) of media samples, the assay is terminated (about 9 to about 12 hours). Media is removed from all wells and placed in scintillation tubes. Scintillate is added and radioactive counts are acquired (LSC). To solubilize cell layers, 500 μL of papain digestion buffer (0.2 M Tris, pH 7.0, 5 mM EDTA, 5 mM DTT, and 1 mg/ml papain) is added to each well. Plates with digestion solution are incubated at 60° C. overnight. The cell layer is removed from the plates the next day and placed in scintillation tubes. Scintillate is then added, and samples counted (LSC).
The percent of released counts from the total present in each well is determined. Averages of the triplicates are made with control background subtracted from each well.

The mark [3] stands for this setting: Table 2, recombinant collagenase-3 assay, read-out: MMP-13 (IC50 class).
Setting [4] is: Table 2, aggrecanase chondrocyte assay, read-out: Agg (aggrecanase IC50 class).

Like-named read-outs stand apart in the source and are kept apart here.

Regarding `C[C@@]1(O)CCCN(S(=O)(=O)c2ccc(OCc3ccc(F)cc3F)cc2)[C@H]1C(=O)NO` [(2R,3R) 1-[4-(2,4-difluoro-benzyloxy)-benzenesulfonyl]-3-hydroxy-3-methyl-piperidine-2-carboxylic acidhydroxyamide], the half-maximal inhibitory concentration (IC50) was < 10 nM in assay [1] (setting [3]), 10000 to 20000 nM on TACE, 200 to 1000 nM in assay [2] and 10 to 20 nM in the assay on aggrecanase (setting [4]).

As to `Cc1cc(F)ccc1COc1ccc(S(=O)(=O)N2CC(=O)N[C@@H](C)[C@@H]2C(=O)NO)cc1` [(2R,3S) 1-[4-(4-fluoro-2-methyl-benzyloxy)-benzenesulfonyl]-3-methyl-5-oxo-piperazine-2-carboxylic acidhydroxyamide], the IC50 is 10 to 20 nM in assay [1] (setting [3]), < 10000 nM at TACE, > 1000 nM in assay [2] and < 10 nM in the assay on aggrecanase (setting [4]).

For `CC1(C)C[C@@H](O)CN(S(=O)(=O)c2ccc(OCc3ccc(F)cc3Cl)cc2)[C@H]1C(=O)NO` [(2R,5R) 1-[4-(2-chloro-4-fluoro-benzyloxy)-benzenesulfonyl]-5-hydroxy-3,3-dimethyl-piperidine-2-carboxylic acidhydroxyamide], the half-inhibitory concentration (IC50) in assay [1] (setting [3]) was < 10 nM; at TACE, 10000 to 20000 nM; in assay [2], 200 to 1000 nM; in the assay with aggrecanase (setting [4]), < 10 nM.

In the case of `CC1(C)C[C@@H](O)CN(S(=O)(=O)c2ccc(OCc3ccc(Cl)cc3Cl)cc2)[C@H]1C(=O)NO` [(2R,5R) 1-[4-(2,4-dichloro-benzyloxy)-benzenesulfonyl]-5-hydroxy-3,3-dimethyl-piperidine-2-carboxylic acidhydroxyamide], the half-inhibitory concentration (IC50) in assay [1] (setting [3]) was < 10 nM; at TACE it was 20000 to 40000 nM; in assay [2], 200 to 1000 nM; in the assay with aggrecanase (setting [4]), < 10 nM.

With `CC1(C)C[C@@H](O)CN(S(=O)(=O)c2ccc(OCc3cc(Cl)ccc3F)cc2)[C@H]1C(=O)NO` [(2R,5R) 1-[4-(2-fluoro-5-chloro-benzyloxy)-benzenesulfonyl]-5-hydroxy-3,3-dimethyl-piperidine-2-carboxylic acidhydroxyamide], the half-inhibitory concentration (IC50) is < 10 nM in assay [1] (setting [3]), 10000 to 20000 nM at TACE, 200 to 1000 nM in assay [2] and 10 to 20 nM with aggrecanase (setting [4]).

For `Cc1ccc(F)cc1COc1ccc(S(=O)(=O)N2CC(=O)N[C@@H](C)[C@@H]2C(=O)NO)cc1` [(2R,3S) 1-[4-(2-methyl-5-fluoro-benzyloxy)-benzenesulfonyl]-3-methyl-5-oxo-piperazine-2-carboxylic acidhydroxyamide], the concentration for half-maximal inhibition (IC50) was 10 to 20 nM in assay [1] (setting [3]), < 10000 nM on TACE, > 1000 nM in assay [2] and < 10 nM with aggrecanase (setting [4]).

Regarding `CCc1ccccc1COc1ccc(S(=O)(=O)N2CCN(C(=O)NC)[C@@H](C)[C@@H]2C(=O)NO)cc1` [(2R,3S) 4-[4-(2-ethyl-benzyloxy)-benzenesulfonyl]-3-methyl-4-carboxylic acidmethylamide-piperazine-2-carboxylic acidhydroxyamide], the IC50 in assay [1] (setting [3]) is 20 to 200 nM; on TACE, < 10000 nM; in assay [2], > 1000 nM; with aggrecanase (setting [4]) it was < 10 nM.

For `NS(=O)(=O)c1ccc(CCNC(=O)C(CC2CCCCC2)NC(=O)C(CCCc2ccccc2)CC(=O)NO)cc1` (stereo not drawn) [reference compound], the IC50 in the assay on aggrecanase (primary porcine chondrocytes, IL-1 (5 ng/ml), read-out: Aggrecanase IC50) came to 53.5 nM.

In the case of `Cc1cc(F)ccc1COc1ccc(S(=O)(=O)N2CCC[C@@](C)(O)[C@@H]2C(=O)NO)cc1` [(2R,3R) 1-[4-(4-fluoro-2-methyl-benzyloxy)-benzenesulfonyl]-3-hydroxy-3-methyl-piperidine-2-carboxylic acidhydroxyamide], the IC50 was < 10 nM in assay [1] (setting [3]), < 10000 nM on TACE and < 10 nM in the assay with aggrecanase (setting [4]).

Regarding `C[C@@]1(O)CCCN(S(=O)(=O)c2ccc(OCc3ccccc3Cl)cc2)[C@H]1C(=O)NO` [(2R,3R) 1-[4-(2-chloro-benzyloxy)-benzenesulfonyl]-3-hydroxy-3-methyl-piperidine-2-carboxylic acidhydroxyamide], the concentration for half-maximal inhibition (IC50) in assay [1] (setting [3]) was < 10 nM; at TACE, < 10000 nM; in the assay on aggrecanase (setting [4]) it was < 10 nM.

For `CNC(=O)[C@H](Cc1ccc(OC)cc1)NC(=O)[C@@H](CC(=O)NO)CC(C)C` [reference compound], the concentration for half-maximal inhibition (IC50) in assay [1] (human recombinant enzyme, fluorogenic peptide substrate, read-out: Collagenase-3 IC50) was determined as 1 nM.

As to `C[C@@]1(O)CCCN(S(=O)(=O)c2ccc(OCc3ccccc3F)cc2)[C@H]1C(=O)NO` [(2R,3R) 1-[4-(2-fluoro-benzyloxy)-benzenesulfonyl]-3-hydroxy-3-methyl-piperidine-2-carboxylic acidhydroxyamide], the IC50 at TACE lay within 20000 to 40000 nM; in assay [2], 20 to 200 nM; with aggrecanase (setting [4]), 10 to 20 nM.

As for `Cc1ccc(F)cc1COc1ccc(S(=O)(=O)N2CCC[C@@](C)(O)[C@@H]2C(=O)NO)cc1` [(2R,3R) 1-[4-(2-methyl-5-fluorobenzyloxy)-benzenesulfonyl]-3-hydroxy-3-methyl-piperidine-2-carboxylic acidhydroxyamide], the concentration for half-maximal inhibition (IC50) in assay [1] (setting [3]) is < 10 nM; at TACE, < 10000 nM; with aggrecanase (setting [4]), 10 to 20 nM.
